One assay relates to hPIV3 C243 virus strain. The format is cell-based, hPIV. Conditions: LLC-MK2 cells, hPIV3 C243, plaque reduction; read-out: EC50 against hPIV3 virus. The gist of the method: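 LLC-MK2 cells (40,000/well) infected with about 200 PFU of virus preincubated 1 h with the sample, then overlaid with 0.8% CMC medium containing the sample (0.5% DMSO) for 1 day at 37 °C. Plaques immunostained with TrueBlue and counted; 8 concentrations in duplicate, EC50 from a four-parameter fit.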

The target of another assay is T1, hMPV-N46 (127-172) (Human metapneumovirus, UniProt Q6WB98).
T1 construct: hMPV-N46 (127-172)
T1 sequence (Q6WB98 127-172): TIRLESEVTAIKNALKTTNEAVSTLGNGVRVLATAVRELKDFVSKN
Kind of assay: SPR affinity to hMPV-N46 coupled on CM5 chip. The format is binding.

Where a SMILES comes first, the peptide text is derived from it. The star is where a group is joined. Succinyl(4-O-cholesteryl) = CC(C)CCC[C@@H](C)[C@H]1CC[C@H]2[C@@H]3CC=C4C[C@@H](OC(=O)CCC(=O)*)CC[C@]4(C)[C@H]3CC[C@]12C

The record followed here is patent publication US20260250325A1, “Antiviral Polypeptide Membrane Fusion Inhibitor, and Preparation Method and Application Thereof” (priority 2025, published 2026).

Usually EC50 stands for the concentration at which the effect is half-maximal. A word on the Kd: it is the equilibrium constant for the complex coming apart. A high value points to weaker binding. `CC[C@H](C)[C@H](NC(=O)[C@H](CO)NC(=O)[C@H](C)NC(=O)[C@H](CC(=O)O)NC(=O)[C@H](Cc1ccccc1)NC(C)=O)C(=O)N[C@@H](CCC(=O)O)C(=O)N[C@@H](CCC(=O)O)C(=O)N[C@H](C(=O)N[C@@H](CC(N)=O)C(=O)N[C@@H](CCCNC(=N)N)C(=O)N[C@@H](CCCNC(=N)N)C(=O)N[C@H](C(=O)N[C@@H](CCC(=O)O)C(=O)N[C@@H](CCC(=O)O)C(=O)N[C@@H](CO)C(=O)N[C@@H](CC(C)C)C(=O)N[C@@H](CCCNC(=N)N)C(=O)N[C@@H](CCCNC(=N)N)C(=O)N[C@H](C(=O)N[C@@H](CCC(=O)O)C(=O)N[C@@H](CCC(=O)O)C(=O)N[C@@H](CO)C(=O)N[C@@H](CC(=O)O)C(=O)N[C@@H](CCCNC(=N)N)C(=O)N[C@@H](CCCNC(=N)N)C(=O)N[C@@H](CC(C)C)C(=O)N[C@@H](CCC(=O)O)C(=O)N[C@@H](CCC(=O)O)C(=O)N[C@H](C(=O)N[C@@H](CC(N)=O)C(=O)N[C@@H](C)C(=O)N[C@@H](CCC(=O)O)C(=O)N[C@@H](C)C(=O)N[C@@H](C)C(=O)N[C@@H](C)C(=O)N[C@@H](CCCCN)C(=O)N[C@@H](CCCCNC(=O)CCC(=O)O[C@H]1CC[C@@]2(C)C(=CC[C@H]3[C@@H]4CC[C@H]([C@H](C)CCCC(C)C)[C@@]4(C)CC[C@@H]32)C1)C(N)=O)C(C)C)[C@@H](C)CC)[C@@H](C)CC)C(C)C` [Compound 42] (Ac-FDASIEEVNRRIEESLRRIEESDRRLEEVNAEAAAKK(Succinyl(4-O-cholesteryl))-NH2): in the assay with hPIV3 C243 virus strain, the EC50 worked out at 18.9 nM. Besides, at hMPV-N46 (127-172), binding was put at a Kd of 533 nM.
Consider `CC[C@H](C)[C@H](NC(=O)[C@H](CO)NC(=O)[C@H](C)NC(=O)[C@H](CC(=O)O)NC(=O)[C@H](Cc1ccccc1)NC(=O)[C@H](CCC(=O)O)NC(=O)[C@H](CC(=O)O)NC(=O)[C@H](Cc1c[nH]c2ccccc12)NC(C)=O)C(=O)N[C@@H](CCC(=O)O)C(=O)N[C@@H](CCC(=O)O)C(=O)N[C@H](C(=O)N[C@@H](CC(N)=O)C(=O)N[C@@H](CCCNC(=N)N)C(=O)N[C@@H](CCCNC(=N)N)C(=O)N[C@H](C(=O)N[C@@H](CCC(=O)O)C(=O)N[C@@H](CCC(=O)O)C(=O)N[C@@H](CO)C(=O)N[C@@H](CC(C)C)C(=O)N[C@@H](CCCNC(=N)N)C(=O)N[C@@H](CCCNC(=N)N)C(=O)N[C@H](C(=O)N[C@@H](CCC(=O)O)C(=O)N[C@@H](CCC(=O)O)C(=O)N[C@@H](CO)C(=O)N[C@@H](CC(=O)O)C(=O)N[C@@H](CCCNC(=N)N)C(=O)N[C@@H](CCCNC(=N)N)C(=O)N[C@@H](CC(C)C)C(=O)N[C@@H](CCC(=O)O)C(=O)N[C@@H](CCC(=O)O)C(=O)N[C@H](C(=O)N[C@@H](CCC(=O)O)C(=O)N[C@@H](C)C(=O)N[C@@H](C)C(=O)N[C@@H](C)C(=O)N[C@@H](CCCCN)C(=O)N[C@@H](CCCCNC(=O)CCC(=O)O[C@H]1CC[C@@]2(C)C(=CC[C@H]3[C@@H]4CC[C@H]([C@H](C)CCCC(C)C)[C@@]4(C)CC[C@@H]32)C1)C(N)=O)C(C)C)[C@@H](C)CC)[C@@H](C)CC)C(C)C` [Compound 43] (Ac-WDEFDASIEEVNRRIEESLRRIEESDRRLEEVEAAAKK(Succinyl(4-O-cholesteryl))-NH2), for which the EC50 in the assay with hPIV3 C243 virus strain worked out at 16.1 nM. The affinity at hMPV-N46 (127-172), expressed as Kd, was 71400 nM.
The corresponding values for `CC[C@H](C)[C@H](NC(=O)[C@H](CCCCN)NC(=O)[C@H](CCCCN)NC(=O)[C@H](CC(C)C)NC(=O)[C@H](CO)NC(=O)[C@H](CCC(=O)O)NC(=O)[C@H](CCC(=O)O)NC(=O)[C@@H](NC(=O)[C@H](CCCCN)NC(=O)[C@H](CCCCN)NC(=O)[C@H](CC(N)=O)NC(=O)[C@@H](NC(=O)[C@H](CCC(=O)O)NC(=O)[C@H](CCC(=O)O)NC(=O)[C@@H](NC(=O)[C@H](CCCCN)NC(=O)[C@H](CCCCN)NC(=O)[C@H](CC(=O)O)NC(=O)[C@H](Cc1ccccc1)NC(=O)[C@H](CCC(=O)O)NC(=O)[C@H](CC(=O)O)NC(=O)[C@H](Cc1c[nH]c2ccccc12)NC(C)=O)[C@@H](C)CC)C(C)C)[C@@H](C)CC)C(=O)N[C@@H](CCC(=O)O)C(=O)N[C@@H](CCC(=O)O)C(=O)N[C@@H](CO)C(=O)N[C@@H](CC(=O)O)C(=O)N[C@@H](CCCCN)C(=O)N[C@@H](CCCCN)C(=O)N[C@@H](CC(C)C)C(=O)N[C@@H](Cc1c[nH]cn1)C(=O)N[C@@H](CC(N)=O)C(=O)N[C@H](C(=O)N[C@@H](CCC(=O)O)C(=O)N[C@@H](C)C(=O)N[C@@H](C)C(=O)N[C@@H](C)C(=O)N[C@@H](CCCCN)C(=O)N[C@@H](CCCCNC(=O)CCC(=O)O[C@H]1CC[C@@]2(C)C(=CC[C@H]3[C@@H]4CC[C@H]([C@H](C)CCCC(C)C)[C@@]4(C)CC[C@@H]32)C1)C(N)=O)C(C)C` [Compound 44] (Ac-WDEFDKKIEEVNKKIEESLKKIEESDKKLHNVEAAAKK(Succinyl(4-O-cholesteryl))-NH2) are 27.9 nM and 149 nM.
For `CC[C@H](C)[C@H](NC(=O)[C@H](CO)NC(=O)[C@H](C)NC(=O)[C@H](CC(=O)O)NC(=O)[C@H](Cc1ccccc1)NC(=O)[C@H](CCC(=O)O)NC(=O)[C@H](CC(=O)O)NC(=O)[C@H](Cc1c[nH]c2ccccc12)NC(C)=O)C(=O)N[C@@H](CO)C(=O)N[C@@H](CCC(N)=O)C(=O)N[C@H](C(=O)N[C@@H](CC(N)=O)C(=O)N[C@@H](CCC(=O)O)C(=O)N[C@@H](CCCCN)C(=O)N[C@H](C(=O)N[C@@H](CC(N)=O)C(=O)N[C@@H](CCC(N)=O)C(=O)N[C@@H](CO)C(=O)N[C@@H](CC(C)C)C(=O)N[C@@H](CCC(=O)O)C(=O)N[C@@H](CCC(=O)O)C(=O)N[C@H](C(=O)N[C@@H](CCCNC(=N)N)C(=O)N[C@@H](CCCCN)C(=O)N[C@@H](CO)C(=O)N[C@@H](CC(=O)O)C(=O)N[C@@H](CCC(=O)O)C(=O)N[C@@H](CC(C)C)C(=O)N[C@@H](CC(C)C)C(=O)N[C@@H](Cc1c[nH]cn1)C(=O)N[C@@H](CC(N)=O)C(=O)N[C@@H](CCC(=O)O)C(=O)N[C@@H](C)C(=O)N[C@@H](C)C(=O)N[C@@H](C)C(=O)N[C@@H](CCCCN)C(=O)N[C@@H](CCCCNC(=O)CCC(=O)O[C@H]1CC[C@@]2(C)C(=CC[C@H]3[C@@H]4CC[C@H]([C@H](C)CCCC(C)C)[C@@]4(C)CC[C@@H]32)C1)C(N)=O)[C@@H](C)CC)[C@@H](C)CC)C(C)C` [Compound 45] (Ac-WDEFDASISQVNEKINQSLEEIRKSDELLHNEAAAKK(Succinyl(4-O-cholesteryl))-NH2), in that order: 36.3 nM and 70600 nM.
Regarding `CC[C@H](C)[C@H](NC(=O)[C@H](CCCCN)NC(=O)[C@H](CCCCN)NC(=O)[C@H](CC(C)C)NC(=O)[C@H](CO)NC(=O)[C@H](CCC(N)=O)NC(=O)[C@H](CC(N)=O)NC(=O)[C@@H](NC(=O)[C@H](CCCCN)NC(=O)[C@H](CCCCN)NC(=O)[C@H](CC(=O)O)NC(=O)[C@H](Cc1ccccc1)NC(=O)[C@H](CCC(=O)O)NC(=O)[C@@H](NC(=O)[C@H](CCCCN)NC(=O)[C@H](CCCCN)NC(=O)[C@H](CC(N)=O)NC(=O)[C@@H](NC(=O)[C@H](CC(C)C)NC(=O)[C@H](CCC(=O)O)NC(=O)[C@H](CC(=O)O)NC(=O)[C@H](CO)NC(C)=O)C(C)C)[C@@H](C)CC)[C@@H](C)CC)C(=O)N[C@@H](CCC(=O)O)C(=O)N[C@@H](CCC(=O)O)C(=O)N[C@@H](CO)C(=O)N[C@@H](CC(=O)O)C(=O)N[C@@H](CCCCN)C(=O)N[C@@H](CCCCN)C(=O)N[C@@H](CCCCN)C(=O)N[C@@H](CC(C)C)C(=O)N[C@@H](CCC(=O)O)C(=O)N[C@@H](C)C(=O)N[C@@H](C)C(=O)N[C@@H](C)C(=O)N[C@@H](CCCCN)C(=O)N[C@@H](CCCCN)C(N)=O` [Compound 51] (Ac-SDELVNKKIEFDKKINQSLKKIEESDKKKLEAAAKK-NH2), the EC50 with hPIV3 C243 virus strain worked out at 18.8 nM. At hMPV-N46 (127-172), the Kd came out at 14.4 nM.
As to “Ac-FDEEISQVNEKINQSLAFIRKSDELLHNVNAGKSTTEAAAKK(Succinyl(4-O-cholesteryl))-NH2 [Compound 26]”, in the assay on hPIV3 C243 virus strain, the EC50 is 1.35 nM. At hMPV-N46 (127-172), this molecule had a Kd of 2150 nM.
On to “Ac-LVKKIDEFDASISQVNEKINQSLEEIRKSDELLHNVGSGSGK(Succinyl(4-O-cholesteryl))-NH2 [Compound 29]”, for which the EC50 with hPIV3 C243 virus strain amounted to 26.3 nM. On hMPV-N46 (127-172), this molecule gave a Kd of 48.2 nM.
For “Ac-WDEFDASISQVNEKINQSLEEIRKSDELLHNVNAGLGSGSGK(Succinyl(4-O-cholesteryl))-NH2 [Compound 27]”, in that order: 27.2 nM and 2920 nM.
On to “Ac-WDEFDASISQVNEKINQSLEEIRKSDELLHNVNALEAAAKK(Succinyl(4-O-cholesteryl))-NH2 [Compound 38]”, for which the EC50 in the assay on hPIV3 C243 virus strain stood at 26.4 nM. The same molecule came in with a Kd on hMPV-N46 (127-172) of 392 nM.
